Consider seven compounds from ChEMBL document CHEMBL1133334, “Synthesis and pharmacology of new enantiopure delta(3)-4-arylkainoids” (Bioorg Med Chem Lett, 2000).

This assay concerns the target Glutamate NMDA receptor. Nature of the assay: Compound was tested for agonistic activity at the N-methyl-D-aspartate glutamate receptor obtained from the rat cortical wedge preparation. The format is functional. To be noted: read-out: KD app.

Consider `O=C(O)CC1=C(c2ccco2)CN[C@@H]1C(=O)O`, for which the Kd came out at 70 µM.

Consider `COc1ccccc1C1=C(CC(=O)O)[C@@H](C(=O)O)NC1`, for which the Kd amounted to 380 µM. With `O=C(O)CC1=C(c2ccc3ccccc3c2)CN[C@@H]1C(=O)O`, the Kd was found to be 250 µM.

On to `O=C(O)CC1=C(c2ccoc2)CN[C@@H]1C(=O)O`, for which the Kd came to 85 µM. As for `O=C(O)CC1=C(c2ccsc2)CN[C@@H]1C(=O)O`, the Kd amounted to 45 µM. As to `O=C(O)CC1=C(c2cccs2)CN[C@@H]1C(=O)O`, the Kd is 20 µM. For the compound `O=C(O)CC1=C(c2ccccc2)CN[C@@H]1C(=O)O`, the Kd was determined as 560 µM.
